Results taken from patent US9376433B2, “(AZA-)isoquinolinone derivatives” (MERCK PATENT GMBH, priority 2012, dated 2016).

What was measured:
PARP-1 = molecular target: T1, PARP-1 (Homo sapiens, UniProt P09874); test: PARP-1 autoparsylation assay (HTRF); assay type: biochemical; details: His-tagged Parp-1, human recombinant
T1 construct: purchased Enzo Life Sciences GmbH, Lorrach, Germany
Description: Description of the PARP1 Assay
Biochemical Activity Testing of PARP-1: Autoparsylation Assay
The autoparsylation assay is run in two steps: the enzymatic reaction in which His-tagged Parp-1 transfers biotinylated ADP-ribose/ADP-ribose to itself from biotinylated NAD/NAD as co-substrate and the detection reaction where a time resolved FRET between cryptate labelled anti-His antibody bound to the His tag of the enzyme and Xlent® labelled-streptavidin bound the biotin-parsylation residue is analysed. The autoparsylation activity is detectable directly via the increase in HTRF signal.
The autoparsylation assay is performed as 384-well HTRF® (Cisbio, Codolet, France) assay format in Greiner low volume nb 384-well microtiter plates. 35 nM His-tagged Parp-1 (human, recombinant, Enzo Life Sciences GmbH, Lorrach, Germany) and a mixture of 125 nM bio-NAD (Biolog, Life science Inst., Bremen, Germany) and 800 nM NAD as co-substrate are incubated in a total volume of 6 μl (100 mM Tris/HCl, 4 mM Mg-chloride, 0.01% IGEPAL® CA630, 1 mM DTT , 0.5% DMSO, pH 8, 13 ng/μl activated DNA (BPS Bioscience, San Diego, US)) in the absence or presence of the test compound (10 dilution concentrations) for 150 min at 23° C. The reaction is stopped by the addition of 4 μl of the Stop/detection solution (70 nM SA-Xlent® (Cisbio, Codolet, France), 2.5 nM Anti-His-K® (Eu-labelled anti-His, Cisbio, Codolet, France) in 50 mM HEPES, 400 mM KF, 0.1% BSA, 20 mM EDTA, pH 7.0). After 1 h incubation at room temperature the HTRF iss measured with an Envision multimode reader (Perkin Elmer LAS Germany GmbH) at excitation wavelength 340 nm (laser mode) and emission wavelengths 615 nm and 665 nm. The ratio of the emission signals is determined. The full value used is the inhibitor-free reaction. The pharmacological zero value used is Olaparib (LClabs, Woburn, US) in a final concentration of 1 μM. The inhibitory values (IC50) are determined using either the program Symyx Assay Explorer® or Condosseo® from GeneData.

tankyrase 1/2 = test: Cellular inhibition of tankyrase: increase of Axin2 level in DLD1 cells (Luminex); assay type: cell-based; details: DLD1 colon carcinoma cells, 24 hours, read-out: EC50 tankyrase 1/2 (cell assay)
Protocol: Measurement of Cellular Inhibition of Tankyrase
Since Tankyrases have been described to modulate cellular level of Axin2 (Huang et al., 2009; Nature) the increase of Axin2 level is used as read-out for determination of cellular inhibition of Tankyrases in a Luminex based assay.
Cells of the colon carcinoma cell line DLD1 are plated in 96 well plates with 1.5×10^4 cells per well. Next day, cells are treated with a serial dilution of test compound in seven steps as triplicates with a final DMSO concentration of 0.3%. After 24 hours, cells are lysed in lysis buffer (20 mM Tris/HCl pH 8.0, 150 mM NaCl, 1% NP40, 10% Glycerol) and lysates are cleared by centrifugation through a 96 well filter plate (0.65 μm). Axin2 protein is isolated from cell lysates by incubation with a monoclonal anti-Axin2 antibody (R&D Systems #MAB6078) that is bound to fluorescent carboxybeads. Then, bound Axin2 is specifically detected with a polyclonal anti-Axin2 antibody (Cell Signaling #2151) and an appropriate PE-fluorescent secondary antibody. The amount of isolated Axin2 protein is determined in a Luminex^200 machine (Luminex Corporation) according to the manufacturer's instruction by counting 100 events per well. Inhibition of Tankyrase by test compounds results in higher levels of Axin2 which directly correlates with an increase of detectable fluorescence. As controls cells are treated with solvent alone (neutral control) and with a Tankyrase reference inhibitor IWR-2 (3E-06 M) which refers as control for maximum increase of Axin2. For analysis, the obtained data are normalized against the untreated solvent control and fitted for determination of the EC50 values using the Assay Explorer software (Accelrys).

Tankyrase-2 = molecular target: T2, Tankyrase-2 (Homo sapiens, UniProt Q9H2K2); test: Tankyrase 2 autoparsylation assay (HTRF enzyme assay); assay type: biochemical; details: GST-tagged Tankyrase-2 (873-1166 aa)
T2 construct: GST-tagged Tankyrase-2 (873-1166 aa)
Protocol: Biochemical activity testing of Tankyrase 1 and 2: Autoparsylation assay
The autoparsylation assay is run in two steps: the enzymatic reaction in which GST-tagged Tankyrase-1, resp Tankyrase-2 transferred biotinylated ADP-ribose to itself from biotinylated NAD as co-substrate and the detection reaction where a time resolved FRET between cryptate labelled anti-GST bound to the GST tag of the enzyme and Xlent® labelled-streptavidin bound the biotin-parsylation residue is analysed. The autoparsylation activity was detectable directly via the increase in HTRF signal.
The autoparsylation assay is performed as 384-well HTRF® (Cisbio, Codolet, France) assay format in Greiner low volume nb 384-well microtiter plates and is used for high throughput screen. 250 nM GST-tagged Tankyrase-1 (1023-1327 aa), respectively about 250 nM GST-tagged Tankyrase-2 (873-1166 aa) and 5 μM bio-NAD (Biolog, Life science Inst., Bremen, Germany) as co-substrate are incubated in a total volume of 5 μl (50 mM HEPES, 4 mM Mg-chloride, 0.05% Pluronic F-68, 1.4 mM DTT, 0.5% DMSO, pH 7.7) in the absence or presence of the test compound (10 dilution concentrations) for 90 min at 30° C. The reaction is stopped by the addition of 1 μl 50 mM EDTA solution. 2 μl of the detection solution (1.6 μM SA-Xlent® (Cisbio, Codolet, France), 7.4 nM Anti-GST-K® (Eu-labelled anti-GST, Cisbio, Codolet, France) in 50 mM HEPES, 800 mM KF, 0.1% BSA, 20 mM EDTA, 0.1% CHAPS, pH 7.0) are added. After 1 h incubation at room temperature the HTRF is measured with an Envision multimode reader (Perkin Elmer LAS Germany GmbH) at excitation wavelength 340 nm (laser mode) and emission wavelengths 615 nm and 665 nm. The ratio of the emission signals is determined. The full value used is the inhibitor-free reaction. The pharmacological zero value used is XAV-939 (Tocris) in a final concentration of 5 μM. The inhibitory values (IC50) are determined using either the program Symyx Assay Explorer® or Condosseo® from GeneData.

T1 sequence (P09874 whole entry): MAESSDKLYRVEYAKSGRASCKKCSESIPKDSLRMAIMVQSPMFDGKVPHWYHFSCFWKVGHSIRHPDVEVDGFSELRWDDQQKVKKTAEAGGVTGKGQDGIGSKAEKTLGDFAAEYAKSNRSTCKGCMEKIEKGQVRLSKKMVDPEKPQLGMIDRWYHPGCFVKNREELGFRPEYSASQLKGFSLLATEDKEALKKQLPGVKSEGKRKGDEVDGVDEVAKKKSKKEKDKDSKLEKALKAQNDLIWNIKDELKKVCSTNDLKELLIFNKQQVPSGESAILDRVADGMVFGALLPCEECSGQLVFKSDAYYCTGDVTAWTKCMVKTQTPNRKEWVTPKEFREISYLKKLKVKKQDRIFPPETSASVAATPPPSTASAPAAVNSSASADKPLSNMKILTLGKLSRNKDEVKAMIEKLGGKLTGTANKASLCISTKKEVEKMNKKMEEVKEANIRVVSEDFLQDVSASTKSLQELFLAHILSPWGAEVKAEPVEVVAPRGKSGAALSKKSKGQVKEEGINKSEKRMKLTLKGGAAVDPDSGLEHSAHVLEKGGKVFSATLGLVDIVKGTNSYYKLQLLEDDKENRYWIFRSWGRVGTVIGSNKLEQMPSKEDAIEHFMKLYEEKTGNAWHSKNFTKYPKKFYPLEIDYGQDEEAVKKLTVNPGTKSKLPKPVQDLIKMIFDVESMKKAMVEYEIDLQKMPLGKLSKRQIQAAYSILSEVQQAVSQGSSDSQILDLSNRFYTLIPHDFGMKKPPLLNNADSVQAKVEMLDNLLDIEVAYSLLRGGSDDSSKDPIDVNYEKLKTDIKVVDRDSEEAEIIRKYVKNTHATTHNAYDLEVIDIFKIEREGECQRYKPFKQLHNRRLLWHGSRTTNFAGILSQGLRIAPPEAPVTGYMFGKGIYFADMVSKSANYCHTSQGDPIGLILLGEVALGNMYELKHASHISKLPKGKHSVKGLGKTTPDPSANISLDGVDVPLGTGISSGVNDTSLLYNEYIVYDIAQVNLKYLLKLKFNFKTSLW
T2 sequence (Q9H2K2 873-1166): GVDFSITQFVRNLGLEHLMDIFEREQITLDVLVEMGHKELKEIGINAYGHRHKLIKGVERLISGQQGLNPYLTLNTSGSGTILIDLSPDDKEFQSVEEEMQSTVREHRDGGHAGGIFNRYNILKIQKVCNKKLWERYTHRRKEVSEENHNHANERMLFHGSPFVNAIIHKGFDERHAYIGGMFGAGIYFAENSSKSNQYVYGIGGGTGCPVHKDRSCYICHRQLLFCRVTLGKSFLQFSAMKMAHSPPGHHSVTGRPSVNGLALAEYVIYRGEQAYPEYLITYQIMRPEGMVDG

Compound | IC50 (PARP-1) | EC50 (tankyrase 1/2) | IC50 (Tankyrase-2)
CC(C)(O)c1ccc(-c2cc3ccccc3c(=O)[nH]2)cc1 [Compound A3, 3-[4-(1-hydroxy-1-methyl-ethyl)-phenyl]-2H-isoquinolin-1-one] | 300 to 3000 nM | < 300 nM | < 300 nM
CC(C)(O)c1ccc(-c2cc3cc(F)ccc3c(=O)[nH]2)cc1 [Compound A5, 6-fluoro-3-[4-(1-hydroxy-1-methyl-ethyl)-phenyl]-2H-isoquinolin-1-one] | 300 to 3000 nM | 300 to 3000 nM | 300 to 3000 nM
CC(C)(O)c1ccc(-c2cc3ccc(F)cc3c(=O)[nH]2)cc1 [Compound A6, 7-fluoro-3-[4-(1-hydroxy-1-methyl-ethyl)-phenyl]-2H-isoquinolin-1-one] | 300 to 3000 nM | < 300 nM | < 300 nM
Cc1ccc(-c2cc3ccc(F)cc3c(=O)[nH]2)cc1 [Compound A9, 7-fluoro-3-p-tolyl-2H-isoquinolin-1-one] | < 300 nM | 300 to 3000 nM | < 300 nM
Cc1ccc(-c2cc3cc(F)ccc3c(=O)[nH]2)cc1 [Compound A10, 6-fluoro-3-p-tolyl-2H-isoquinolin-1-one] | 3000 to 50000 nM | 3000 to 50000 nM | 300 to 3000 nM
Cc1ccc(-c2cc3cccc(F)c3c(=O)[nH]2)cc1 [Compound A11, 8-fluoro-3-p-tolyl-2H-isoquinolin-1-one] | 300 to 3000 nM | 300 to 3000 nM | < 300 nM
Cc1ccc(-c2cc3c(F)cccc3c(=O)[nH]2)cc1 [Compound A12, 5-fluoro-3-p-tolyl-2H-isoquinolin-1-one] | 300 to 3000 nM | 300 to 3000 nM | 300 to 3000 nM
Cn1cc(-c2ccc(-c3cc4ccncc4c(=O)[nH]3)cc2)cn1 [Compound A14, 3-[4-(1-Methyl-1H-pyrazol-4-yl)-phenyl]-2H-[2,7]naphthyridin-1-one] | 3000 to 50000 nM | 300 to 3000 nM | 300 to 3000 nM
COC(C)(C)c1ccc(-c2cc3ccccc3c(=O)[nH]2)cc1 [Compound A15, 3-[4-(1-methoxy-1-methyl-ethyl)-phenyl]-2H-isoquinolin-1-one] | 300 to 3000 nM | < 300 nM | 300 to 3000 nM
CC(C)(OCCO)c1ccc(-c2cc3ccc(F)cc3c(=O)[nH]2)cc1 [Compound A16, 7-fluoro-3-{4-[1-(2-hydroxy-ethoxy)-1-methyl-ethyl]-phenyl}-2H-isoquinolin-1-one] | 300 to 3000 nM | < 300 nM | < 300 nM
C=C(C)c1ccc(-c2cc3ccc(F)cc3c(=O)[nH]2)cc1 [Compound A17, 7-fluoro-3-(4-isopropenyl-phenyl)-2H-isoquinolin-1-one] | 300 to 3000 nM | < 300 nM | 300 to 3000 nM
Cn1cc(-c2ccc(-c3cc4ccc(F)cc4c(=O)[nH]3)cc2)cn1 [Compound A18, 7-fluoro-3-[4-(1-methyl-1H-pyrazol-4-yl)-phenyl]-2H-isoquinolin-1-one] | 300 to 3000 nM | < 300 nM | 300 to 3000 nM
CC(C)(N)c1ccc(-c2cc3ccc(F)cc3c(=O)[nH]2)cc1 [Compound A20, 3-[4-(1-amino-1-methyl-ethyl)phenyl]-7-fluoro-2H-isoquinolin-1-one] | < 300 nM | 300 to 3000 nM | < 300 nM
CC(C)(O)c1ccc(-c2cc3cnccc3c(=O)[nH]2)cc1 [Compound A23, 3-[4-(1-hydroxy-1-methyl-ethyl)phenyl]-2H-2,6-naphthyridin-1-one] | 3000 to 50000 nM | 300 to 3000 nM | < 300 nM
CC(C)(O)c1ccc(-c2cc3ccncc3c(=O)[nH]2)cc1 [Compound A24, 3-[4-(1-hydroxy-1-methyl-ethyl)phenyl]-2H-2,7-naphthyridin-1-one] | 3000 to 50000 nM | 300 to 3000 nM | < 300 nM
CC(C)(O)c1ccc(-c2cc3cccc(F)c3c(=O)[nH]2)cc1 [Compound A27, 8-fluoro-3-[4-(1-hydroxy-1-methyl-ethyl)phenyl]-2H-isoquinolin-1-one] | 300 to 3000 nM | < 300 nM | < 300 nM
CC(C)(O)c1ccc(-c2cc3c(F)cccc3c(=O)[nH]2)cc1 [Compound A28, 5-fluoro-3-[4-(1-hydroxy-1-methyl-ethyl)phenyl]-2H-isoquinolin-1-one] | 300 to 3000 nM | < 300 nM | < 300 nM
Cc1ccc(-c2cc3c(C)cccc3c(=O)[nH]2)cc1 [Compound A29, 5-methyl-3-(p-tolyl)-2H-isoquinolin-1-one] | < 300 nM | 300 to 3000 nM | 300 to 3000 nM
CC(C)(O)c1ccc(-c2cc3c(F)cc(F)cc3c(=O)[nH]2)cc1 [Compound A33, 5,7-difluoro-3-[4-(1-hydroxy-1-methyl-ethyl)-phenyl]-2H-isoquinolin-1-one] | < 300 nM | < 300 nM | 300 to 3000 nM
